According to ChEMBL document CHEMBL5550128, “Discovery and preclinical evaluations of TQB3616, a novel CDK4-biased inhibitor” (Bioorg Med Chem Lett, 2024):

Legend:
[1] = biological target: T1, Retinoblastoma-associated protein (Homo sapiens) (UniProt P06400); test: Inhibition of Rb phosphorylation in human MCF7 cells incubated for 24 to 48 hrs by In-cell western assay; assay type: cell-based; details: dose 100-500 nM, time 24-48 hrs
T1 sequence (whole entry): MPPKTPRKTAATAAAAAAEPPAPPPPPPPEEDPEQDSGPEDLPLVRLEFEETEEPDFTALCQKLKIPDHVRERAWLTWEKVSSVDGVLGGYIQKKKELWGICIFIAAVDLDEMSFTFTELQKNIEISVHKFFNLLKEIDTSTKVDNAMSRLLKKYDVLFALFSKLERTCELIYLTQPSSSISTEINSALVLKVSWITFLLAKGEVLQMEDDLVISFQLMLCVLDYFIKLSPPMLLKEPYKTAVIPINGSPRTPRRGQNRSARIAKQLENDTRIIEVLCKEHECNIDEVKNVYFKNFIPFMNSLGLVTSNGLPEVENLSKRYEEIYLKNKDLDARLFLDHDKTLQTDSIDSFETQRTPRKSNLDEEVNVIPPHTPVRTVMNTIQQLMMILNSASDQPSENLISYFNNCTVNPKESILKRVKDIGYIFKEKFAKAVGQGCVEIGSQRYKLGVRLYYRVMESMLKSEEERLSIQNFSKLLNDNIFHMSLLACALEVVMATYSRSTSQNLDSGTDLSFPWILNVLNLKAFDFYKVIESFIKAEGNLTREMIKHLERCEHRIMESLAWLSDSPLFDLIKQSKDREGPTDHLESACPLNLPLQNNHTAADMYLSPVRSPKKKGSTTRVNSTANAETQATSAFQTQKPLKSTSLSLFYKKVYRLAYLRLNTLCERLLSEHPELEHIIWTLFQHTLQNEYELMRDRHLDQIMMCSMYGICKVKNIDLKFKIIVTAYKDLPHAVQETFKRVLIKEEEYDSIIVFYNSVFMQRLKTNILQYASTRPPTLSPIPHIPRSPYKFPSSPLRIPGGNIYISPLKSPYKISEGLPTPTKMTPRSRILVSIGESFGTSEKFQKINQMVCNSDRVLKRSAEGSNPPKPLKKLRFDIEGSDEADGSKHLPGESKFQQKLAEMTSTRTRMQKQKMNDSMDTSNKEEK

[2] = Antitumor activity against human PDX ES-06-0130 cells xenografted in mouse at 40 mg/kg, po qd for 3 weeks relative to control; assay type: functional; details: PDX ES-06-0130, 504 h, read-out: TGI
[3] = Toxicity in mouse xenografted with human MCF7 cells assessed as drug tolerance at 5 to 15 mg/kg, po for 3 weeks; assay type: organism-based; details: in vivo, 504 h, dose 5-15 mg/kg
SW-620 = test: Inhibition of cell proliferation in human SW620 cells at 0.3 uM incubated for 72 hrs by Cell Titer Glo assay relative to control; assay type: functional
[4] = Intrinsic clearance in Sprague-Dawley rat at 1 mg/kg, iv; assay type: ADME, organism-based; details: in vivo
MCF7 [5] = test: Antitumor activity against human MCF7 cells xenografted in mouse at 15 mg/kg, po qd for 3 weeks relative to control; assay type: functional; details: MCF7, 504 h, read-out: TGI
Cytochrome P450 2D6 = Cytochrome P450 2D6 (Homo sapiens, UniProt P10635); test: Inhibition of CYP2D6 (unknown origin) using […] as substrate; assay type: ADME
Chain of Cytochrome P450 2D6 (P10635 whole entry): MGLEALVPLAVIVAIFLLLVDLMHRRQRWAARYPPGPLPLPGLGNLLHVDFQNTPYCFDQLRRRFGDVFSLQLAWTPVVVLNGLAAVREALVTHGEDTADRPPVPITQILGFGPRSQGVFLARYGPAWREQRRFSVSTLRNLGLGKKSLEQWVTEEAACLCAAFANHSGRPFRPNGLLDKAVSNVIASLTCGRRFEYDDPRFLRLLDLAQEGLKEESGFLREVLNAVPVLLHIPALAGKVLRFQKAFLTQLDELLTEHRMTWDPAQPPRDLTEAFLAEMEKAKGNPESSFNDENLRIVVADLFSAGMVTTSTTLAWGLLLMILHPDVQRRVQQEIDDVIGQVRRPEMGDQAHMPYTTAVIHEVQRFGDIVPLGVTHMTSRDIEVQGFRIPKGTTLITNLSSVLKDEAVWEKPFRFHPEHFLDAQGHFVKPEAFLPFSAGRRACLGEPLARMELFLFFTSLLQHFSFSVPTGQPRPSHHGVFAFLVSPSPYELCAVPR

[6] = Volume of distribution at steady state in CD-1 mouse at 0.5 mg/kg, iv; assay type: ADME, organism-based; details: in vivo, read-out: Vdss
[7] = Cmax in Beagle dog at 2 mg/kg, po; assay type: ADME, organism-based, Canis lupus familiaris; details: in vivo
SK-MEL-24 = test: Inhibition of cell proliferation in human SK-MEL-24 cells at 0.3 uM incubated for 72 hrs by Cell Titer Glo assay relative to control; assay type: functional
[8] = Permeability across basal to apical side in human Caco-2 cells; assay type: ADME, cell-based; details: read-out: permeability
MDA-MB-436 [9] = test: Induction of cell cycle arrest at S phase in Rb-deficient human MDA-MB-436 cells at 0.16 uM (reference value: 22.47 %); assay type: functional
NCI-H1299 = test: Inhibition of cell proliferation in human NCI-H1299 cells at 0.3 uM incubated for 72 hrs by Cell Titer Glo assay relative to control; assay type: functional
Cytochrome P450 3A4 = Cytochrome P450 3A4 (Homo sapiens, UniProt P08684); test: Inhibition of CYP3A4 (unknown origin) using midazolam as substrate; assay type: ADME
Chain of Cytochrome P450 3A4 (P08684 whole entry): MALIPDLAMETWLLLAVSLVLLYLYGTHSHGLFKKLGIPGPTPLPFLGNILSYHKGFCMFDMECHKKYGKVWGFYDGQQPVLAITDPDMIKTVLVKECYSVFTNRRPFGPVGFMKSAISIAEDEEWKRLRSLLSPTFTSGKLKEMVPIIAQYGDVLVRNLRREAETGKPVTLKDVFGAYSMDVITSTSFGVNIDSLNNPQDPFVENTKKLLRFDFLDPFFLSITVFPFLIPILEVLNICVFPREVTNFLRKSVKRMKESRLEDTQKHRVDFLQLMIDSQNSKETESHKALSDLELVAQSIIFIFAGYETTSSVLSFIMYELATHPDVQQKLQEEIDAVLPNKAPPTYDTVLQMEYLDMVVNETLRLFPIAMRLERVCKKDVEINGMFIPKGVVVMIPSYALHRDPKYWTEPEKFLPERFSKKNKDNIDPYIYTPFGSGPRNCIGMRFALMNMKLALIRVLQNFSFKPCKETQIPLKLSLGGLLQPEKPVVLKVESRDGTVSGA

NCI-H520 = test: Inhibition of cell proliferation in human NCI-H520 cells at 0.3 uM incubated for 72 hrs by Cell Titer Glo assay relative to control; assay type: functional
[10] = Oral bioavailability in Sprague-Dawley rat at 6 mg/kg; assay type: ADME, organism-based; details: in vivo
[11] = Plasma protein in monkey assessed as unbound fraction; assay type: ADME, cell-free, Macaca mulatta; details: rhesus monkey
A673 = test: Inhibition of cell proliferation in human A673 cells at 0.3 uM incubated for 72 hrs by Cell Titer Glo assay relative to control; assay type: functional
[12] = Plasma protein in human assessed as unbound fraction; assay type: ADME, cell-free
[13] = Half life in Sprague-Dawley rat at 1 mg/kg, iv; assay type: ADME, organism-based; details: in vivo
Cytochrome P450 1A2 = Cytochrome P450 1A2 (Homo sapiens, UniProt P05177); test: Inhibition of CYP1A2 (unknown origin) using […] as substrate; assay type: ADME
Chain of Cytochrome P450 1A2 (P05177 whole entry): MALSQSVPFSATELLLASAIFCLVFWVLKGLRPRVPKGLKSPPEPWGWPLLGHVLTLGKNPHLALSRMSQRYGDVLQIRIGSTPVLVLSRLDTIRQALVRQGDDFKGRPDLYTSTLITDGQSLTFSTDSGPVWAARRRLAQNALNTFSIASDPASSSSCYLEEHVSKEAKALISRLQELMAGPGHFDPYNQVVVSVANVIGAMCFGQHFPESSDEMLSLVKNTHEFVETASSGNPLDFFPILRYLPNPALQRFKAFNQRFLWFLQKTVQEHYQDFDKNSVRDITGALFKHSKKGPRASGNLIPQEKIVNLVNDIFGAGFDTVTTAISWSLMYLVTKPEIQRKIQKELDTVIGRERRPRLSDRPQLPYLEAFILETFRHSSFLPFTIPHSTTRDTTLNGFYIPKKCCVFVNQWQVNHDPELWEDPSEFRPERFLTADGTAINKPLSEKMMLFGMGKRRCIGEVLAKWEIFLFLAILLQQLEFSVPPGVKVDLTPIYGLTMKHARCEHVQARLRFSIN

MDA-MB-436 [14] = test: Induction of cell cycle arrest at G2 phase in Rb-deficient human MDA-MB-436 cells at 0.16 uM (reference value: 28.59 %); assay type: functional
MCF7 [15] = test: Antitumor activity against human MCF7 cells xenografted in mouse at 5 mg/kg, po qd for 3 weeks relative to control; assay type: functional; details: MCF7, 504 h, read-out: TGI
[16] = Plasma protein in rat assessed as unbound fraction; assay type: ADME, cell-free
MV4-11 = test: Inhibition of cell proliferation in human MV4-11 cells at 0.3 uM incubated for 72 hrs by Cell Titer Glo assay relative to control; assay type: functional
DU-145 = test: Inhibition of cell proliferation in human DU-145 cells at 0.3 uM incubated for 72 hrs by Cell Titer Glo assay relative to control; assay type: functional
[17] = Cmax in CD-1 mouse at 2 mg/kg, po; assay type: ADME, organism-based; details: in vivo
[18] = biological target: Voltage-gated inwardly rectifying potassium channel KCNH2 (Homo sapiens, UniProt Q12809); test: Inhibition of hERG; assay type: toxicity
Chain of Voltage-gated inwardly rectifying potassium channel KCNH2 (Q12809 whole entry): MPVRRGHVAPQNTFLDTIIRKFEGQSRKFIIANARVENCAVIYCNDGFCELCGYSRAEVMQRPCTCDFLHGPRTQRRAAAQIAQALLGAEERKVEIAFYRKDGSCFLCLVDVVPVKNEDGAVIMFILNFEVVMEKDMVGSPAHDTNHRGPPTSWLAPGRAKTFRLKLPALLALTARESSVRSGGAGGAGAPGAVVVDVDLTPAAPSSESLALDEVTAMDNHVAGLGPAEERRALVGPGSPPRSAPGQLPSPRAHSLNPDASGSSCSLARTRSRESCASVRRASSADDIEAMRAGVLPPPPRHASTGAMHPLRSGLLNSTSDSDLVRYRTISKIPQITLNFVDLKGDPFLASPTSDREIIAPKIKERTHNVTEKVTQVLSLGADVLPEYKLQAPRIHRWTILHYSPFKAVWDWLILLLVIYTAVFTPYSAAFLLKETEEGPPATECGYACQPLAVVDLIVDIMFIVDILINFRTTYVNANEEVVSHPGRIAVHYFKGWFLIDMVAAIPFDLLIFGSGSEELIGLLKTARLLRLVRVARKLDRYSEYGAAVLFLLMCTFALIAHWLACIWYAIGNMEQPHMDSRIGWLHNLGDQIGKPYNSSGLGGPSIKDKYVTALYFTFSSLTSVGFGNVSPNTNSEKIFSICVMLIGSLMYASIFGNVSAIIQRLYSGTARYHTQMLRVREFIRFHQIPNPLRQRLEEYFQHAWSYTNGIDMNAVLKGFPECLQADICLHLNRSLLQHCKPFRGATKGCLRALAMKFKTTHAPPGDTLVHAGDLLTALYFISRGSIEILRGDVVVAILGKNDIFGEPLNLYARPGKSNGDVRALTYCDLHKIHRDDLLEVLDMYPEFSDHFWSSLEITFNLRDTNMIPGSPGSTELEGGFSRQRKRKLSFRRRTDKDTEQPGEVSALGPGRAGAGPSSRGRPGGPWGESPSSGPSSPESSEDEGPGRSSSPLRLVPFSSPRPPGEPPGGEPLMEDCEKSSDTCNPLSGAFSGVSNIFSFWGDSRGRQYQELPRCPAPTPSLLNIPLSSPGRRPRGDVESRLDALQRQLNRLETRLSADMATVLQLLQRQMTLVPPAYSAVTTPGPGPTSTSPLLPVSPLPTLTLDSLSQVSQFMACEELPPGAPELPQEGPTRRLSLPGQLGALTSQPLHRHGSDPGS

[19] = Lipophilicity, logD of compound at pH 7.4 in Octanol buffer; assay type: physicochemical
SK-MEL-28 = test: Inhibition of cell proliferation in human SK-MEL-28 cells at 0.3 uM incubated for 72 hrs by Cell Titer Glo assay relative to control; assay type: functional
MCF7 [20] = test: Induction of cell cycle arrest at G1 phase in Rb-proficient human MCF7 cells at 0.16 uM (reference value: 55.9 %); assay type: functional
[21] = Volume of distribution at steady state in Sprague-Dawley rat at 1 mg/kg, iv; assay type: ADME, organism-based; details: in vivo, read-out: Vdss
[22] = AUC (0 to last) in CD-1 mouse at 2 mg/kg, po; assay type: ADME, organism-based; details: in vivo
T47D = test: Inhibition of cell proliferation in human T47D cells at 0.3 uM incubated for 72 hrs by Cell Titer Glo assay relative to control; assay type: functional

inhibition [1]: Dose-Dependent Effect
CL [4]: 30.4 mL/min/kg
IC50 (Cytochrome P450 2D6): > 50 µM
Vd [6]: 5 L/kg
Cmax [7]: 109 nM
Papp B→A [8]: 3.21 ×10⁻⁶ cm/s
IC50 (Cytochrome P450 3A4): > 50 µM
bioavailability [10]: 74.9%
fraction unbound [11]: 0.061
fraction unbound [12]: 0.08
half-life [13]: 4.2 h
IC50 (Cytochrome P450 1A2): > 50 µM
fraction unbound [16]: 0.025
Cmax [17]: 248 nM
logD [19]: 2.4
Vd [21]: 11 L/kg
AUC(0-t) [22]: 1.37 µM·h
Compound: CC(C)c1c2cc(-c3nc(Nc4ccc(N5CCNCC5)cn4)ncc3F)ccc2nn1C [CULMERCICLIB]
inhibition in vivo at 40 mg/kg [2]: 62%
Activity [3]: Non-Toxic
inhibition at 0.3 µM (SW-620): 55.1%
inhibition in vivo at 15 mg/kg (MCF7 [5]): 93%
inhibition at 0.3 µM (SK-MEL-24): 2.6%
Activity (MDA-MB-436 [9]): 26.1%
inhibition at 0.3 µM (NCI-H1299): 57.5%
inhibition at 0.3 µM (NCI-H520): 24%
inhibition at 0.3 µM (A673): -4.1%
Activity (MDA-MB-436 [14]): 26.29%
inhibition in vivo at 5 mg/kg (MCF7 [15]): 68%
inhibition at 0.3 µM (MV4-11): 71.1%
inhibition at 0.3 µM (DU-145): 27.3%
IC50 [18]: 5.3 µM
inhibition at 0.3 µM (SK-MEL-28): 13.7%
Activity (MCF7 [20]): 68.93%
inhibition at 0.3 µM (T47D): 36.6%
